# Results from patent US20110245316A1, “PREVENTION OR DELAY OF ONSET OF ORAL MUCOSITIS” (SCICLONE PHARMACEUTICALS, INC., priority 2010, published 2011).
# “Also recorded” adds a separate entry of the source.
# Test system: oral mucositis in patients receiving chemoradiation for head and neck cancer
# Experiment: Phase 2 randomized, double-blind, placebo-controlled trial: onset of oral mucositis (WHO OM Scale) in patients receiving CT/RT
# Format: in vivo, human
# Conditions: for gastrostomy tube placement and use / unplanned office and emergency room visits: higher dose (0.1 mg/kg); for severe OM, percent of patients: subcutaneous 0.1 mg/kg (HD)
# Source text: OM is a painful, debilitating, and costly toxicity of different chemoradiotherapy (CT/RT) regimens used to treat head and neck cancer. This trial is a phase 2, randomized, double-blind, dose-ranging, placebo-controlled three-arm study in patients receiving CT/RT for the treatment of head and neck cancer, to assess the safety and tolerability of γ-D-glutamyl-L-tryptophan (SCV-07) as well as its efficacy in delaying the onset of severe OM as assessed by the WHO Oral Mucositis Scale.
# The WHO OM Scale is the standard, validated instrument used in clinical trials to measure OM: Grade 0=none; Grade 1=erythema and soreness, no ulcers; Grade 2=ulcers, able to eat a solid diet; Grade 3=ulcers; requires a liquid diet; Grade 4=ulcers, not able to tolerate a solid or liquid diet, requires IV or tube feeding.
# 59 eligible patients with recently diagnosed, treatment naïve, pathologically-confirmed, non-metastatic squamous cell carcinoma of the oral cavity, oropharynx, hypopharynx or larynx were enrolled and treated with a concomitant regimen of CT/RT consisting of a continuous course of external beam irradiation (IMRT eligible) with a minimum cumulative dose of 50 Gray (Gy) and cisplatin monotherapy administered using standard weekly or tri-weekly dosing regimens (80-100 mg/m^2 administered on Days 0, 21 and 42) or weekly (30-40 mg/m^2). At least two ‘at risk’ intraoral sites were included in the radiation fields and received a cumulative RT dose of at least 50 Gy. Subjects were equally randomized to receive either placebo or one of two doses of γ-D-glutamyl-L-tryptophan (0.02 or 0.1 mg/kg) on each radiation day for up to 7 weeks.
# Tables 2-7 summarize the statistics for the Full Analysis Set “FAS” (57 subjects), and the completer population (52 subjects), with respect to delay of onset of severe oral mucositis. Also see FIGS. 1 and 2.
# SCV-07 efficacy, dosing and scheduling parameters were assessed in hamster models of acute, fractionated and concomitant chemoradiation (CRT). […] A multicenter, prospective, blinded, randomized trial evaluated SCV-07's ability to alter OM in CRT-treated HNC patients (n=57). Cytokine and gene microarray analyses were performed for samples obtained before and on the last radiation day.
# [1] = 0.10 mg/kg, Completer Population
# [2] = 0.10 mg/kg, Completer Population, at 30-<35 Gy
# [3] = 0.10 mg/kg, Completer Population, at 35-<40 Gy
# [4] = 0.10 mg/kg, Completer Population, at 40-<45 Gy
# [5] = 0.10 mg/kg, Completer Population, at 45-<50 Gy
# [6] = 0.10 mg/kg, Completer Population, at 50-<55 Gy
# [7] = 0.10 mg/kg, Completer Population, at 55-<60 Gy
# [8] = 0.10 mg/kg, Completer Population, at 65-<70 Gy
# [9] = 0.10 mg/kg, Completer Population, at ≧70 Gy
# [10] = listed as γ-D-glutamyl-L-tryptophan, 0.1 mg/kg
smiles,measurement,setting,value
"N[C@H](CCC(=O)N[C@@H](Cc1c[nH]c2ccccc12)C(=O)O)C(=O)O [SCV-07, γ-D-glutamyl-L-tryptophan]","Cumulative Dose of RT (Gy) at Initial Onset of Ulcerative OM, Median",[1],26 Gy
same,"Cumulative Dose of RT (Gy) at Initial Onset of Ulcerative OM, Min",[1],8 Gy
same,"Cumulative Dose of Radiation (Gy) Prior to Initial Occurrence of Severe OM (Delay to Onset of Severe OM), K-M Estimate, Mean (SE)",[1],56 (3.8) Gy
same,"Cumulative Dose of Radiation (Gy) Prior to Initial Occurrence of Severe OM, K-M Estimate, Median (95% CI)",[1],"57 (51, NA) Gy"
same,"Cumulative Dose of Radiation (Gy) Prior to Initial Occurrence of Ulcerative OM (Delay to Onset of Ulcerative OM), K-M Estimate, Mean (SE)",[1],30 (3.7) Gy
same,"Cumulative Dose of Radiation (Gy) Prior to Initial Occurrence of Ulcerative OM, K-M Estimate, 25%-75%",[1],19-46 Gy
same,"Cumulative Dose of Radiation (Gy) Prior to Initial Occurrence of Ulcerative OM, K-M Estimate, Median (95% CI)",[1],"26 (19, 41) Gy"
same,"Time (Days) to Initial Occurrence of Sever OM, K-M Estimate, Mean (SE)",[1],38 (2.5) Days
same,"Time (Days) to Initial Occurrence of Sever OM, K-M Estimate, Median (95% CI)",[1],"43 (33, NA) Days"
same,"Time (Days) to Initial Occurrence of Ulcerative OM, K-M Estimate, 25%-7%",[1],12 to 32 days
same,"Time (Days) to Initial Occurrence of Ulcerative OM, K-M Estimate, Mean (SE)",[1],20 (2.7) Days
same,"Time (Days) to Initial Occurrence of Ulcerative OM, K-M Estimate, Median (95% CI)",[1],"16 (13, 31) Days"
same,delay to onset of ulcerative OM (WHO score >1) as a function of cumulative radiation dose,"0.10 mg/kg, Completer Population, FIG. 3",showed a delay to onset of OM
same,Cum. Percent of Subjects with Ulcerative OM (WHO > 1),"0.10 mg/kg, Completer Population, at 5-<10 Gy","6% (1%, 37%)"
same,Cum. Percent of Subjects with Ulcerative OM (WHO > 1),"0.10 mg/kg, Completer Population, at 10-<15 Gy","6% (1%, 37%)"
same,Cum. Percent of Subjects with Ulcerative OM (WHO > 1),"0.10 mg/kg, Completer Population, at 15-<20 Gy","38% (19%, 65%)"
same,Cum. Percent of Subjects with Ulcerative OM (WHO > 1),"0.10 mg/kg, Completer Population, at 20-<25 Gy","50% (29%, 75%)"
same,Cum. Percent of Subjects with Ulcerative OM (WHO > 1),"0.10 mg/kg, Completer Population, at 25-<30 Gy","63% (40%, 85%)"
same,Cum. Percent of Subjects with Severe OM (WHO > 2),[2],"13% (3%, 41%)"
same,Cum. Percent of Subjects with Ulcerative OM (WHO > 1),[2],"69% (46%, 89%)"
same,Cum. Percent of Subjects with Severe OM (WHO > 2),[3],"13% (3%, 41%)"
same,Cum. Percent of Subjects with Ulcerative OM (WHO > 1),[3],"69% (46%, 89%)"
same,Cum. Percent of Subjects with Severe OM (WHO > 2),[4],"19% (6%, 48%)"
same,Cum. Percent of Subjects with Ulcerative OM (WHO > 1),[4],"75% (53%, 92%)"
same,Cum. Percent of Subjects with Severe OM (WHO > 2),[5],"25% (10%, 54%)"
same,Cum. Percent of Subjects with Ulcerative OM (WHO > 1),[5],"75% (53%, 92%)"
same,Cum. Percent of Subjects with Severe OM (WHO > 2),[6],"38% (19%, 65%)"
same,Cum. Percent of Subjects with Ulcerative OM (WHO > 1),[6],"94% (75%, 100%)"
same,Cum. Percent of Subjects with Severe OM (WHO > 2),[7],"56% (34%, 80%)"
same,Cum. Percent of Subjects with Ulcerative OM (WHO > 1),[7],"94% (75%, 100%)"
same,Cum. Percent of Subjects with Ulcerative OM (WHO > 1),"0.10 mg/kg, Completer Population, at 60-<65 Gy","94% (75%, 100%)"
same,Cum. Percent of Subjects with Severe OM (WHO > 2),"0.10 mg/kg, Completer Population, at 60->65 Gy","64% (41%, 86%)"
same,Cum. Percent of Subjects with Severe OM (WHO > 2),[8],"73% (48%, 92%)"
same,Cum. Percent of Subjects with Ulcerative OM (WHO > 1),[8],"94% (75%, 100%)"
same,Cum. Percent of Subjects with Ulcerative OM (WHO > 1),"0.10 mg/kg, Completer Population, at <5 Gy","0% (0%, 0%)"
same,Cum. Percent of Subjects with Severe OM (WHO > 2),"0.10 mg/kg, Completer Population, at <30 Gy","6% (1%, 37%)"
same,Cum. Percent of Subjects with Severe OM (WHO > 2),[9],"73% (48%, 92%)"
same,Cum. Percent of Subjects with Ulcerative OM (WHO > 1),[9],"94% (75%, 100%)"
same,"Cumulative Dose of RT (Gy) at Initial Onset of Severe OM, Max","0.10 mg/kg, FAS population",72 Gy
same,"Cumulative Dose of RT (Gy) at Initial Onset of Severe OM, Mean (SD)","0.10 mg/kg, FAS population",54 (15.6) Gy
same,"Cumulative Dose of RT (Gy) at Initial Onset of Severe OM, Median","0.10 mg/kg, FAS population",56 Gy
same,"Cumulative Dose of RT (Gy) at Initial Onset of Severe OM, Min","0.10 mg/kg, FAS population",20 Gy
same,"Cumulative Dose of Radiation (Gy) Prior to Initial Occurrence of Severe OM (Delay to Onset of Severe OM), K-M Estimate, Mean (SE)","0.10 mg/kg, FAS population",54 (3.9) Gy
same,"Cumulative Dose of Radiation (Gy) Prior to Initial Occurrence of Severe OM, K-M Estimate, Median (95% CI)","0.10 mg/kg, FAS population","56 (46, 70) Gy"
same,"Time (Days) to Initial Occurrence of Severe OM, K-M Estimate, Mean (SE)","0.10 mg/kg, FAS population",37 (2.7) Days
same,"Time (Days) to Initial Occurrence of Severe OM, K-M Estimate, Median (95% CI)","0.10 mg/kg, FAS population","40 (32, NA) Days"
same,Cum. Percent of Subjects with Severe OM (WHO > 2),"0.10 mg/kg, FAS population, at 30-<35 Gy","18% (6%, 45%)"
same,Cum. Percent of Subjects with Severe OM (WHO > 2),"0.10 mg/kg, FAS population, at 35-<40 Gy","18% (6%, 45%)"
same,Cum. Percent of Subjects with Severe OM (WHO > 2),"0.10 mg/kg, FAS population, at 40-<45 Gy","24% (10%, 51%)"
same,Cum. Percent of Subjects with Severe OM (WHO > 2),"0.10 mg/kg, FAS population, at 45-<50 Gy","29% (13%, 57%)"
same,Cum. Percent of Subjects with Severe OM (WHO > 2),"0.10 mg/kg, FAS population, at 50-<55 Gy","41% (22%, 67%)"
same,Cum. Percent of Subjects with Severe OM (WHO > 2),"0.10 mg/kg, FAS population, at 55-<60 Gy","59% (37%, 81%)"
same,Cum. Percent of Subjects with Severe OM (WHO > 2),"0.10 mg/kg, FAS population, at 60-<65 Gy","66% (44%, 87%)"
same,Cum. Percent of Subjects with Severe OM (WHO > 2),"0.10 mg/kg, FAS population, at 65-<70 Gy","74% (51%, 93%)"
same,Cum. Percent of Subjects with Severe OM (WHO > 2),"0.10 mg/kg, FAS population, at >30 Gy","6% (1%, 35%)"
same,Cum. Percent of Subjects with Severe OM (WHO > 2),"0.10 mg/kg, FAS population, at ≧70 Gy","74% (51%, 93%)"
same,delay to onset of severe OM (WHO score >2) as a function of cumulative radiation dose,"0.10 mg/kg, Full Analysis Set, FIG. 1",showed a delay to onset of OM
same,delay to onset of severe OM (WHO score >2) as a function of cumulative radiation dose,"0.10 mg/kg, patients that completed radiation therapy, FIG. 2",showed a delay to onset of OM
same,treatment breaks,HD (0.1 mg/kg),fewer
same,"Cox regression analysis of time to UOM initial occurrence, decrease vs. placebo",HD SCV-07 cohort vs. placebo,52%
same,Number of Days that Patients used the G-Tube,SCV-07 high dose,44 days
same,Percent of Patients with G-Tube Placement,SCV-07 high dose (n = 3/20),18%
same,Number of Days that Patients used the G-Tube,SCV-07 low dose,57 days
same,Percent of Patients with G-Tube Placement,SCV-07 low dose (n = 4/20),20%
same,"delay to onset of ulcerative OM (WHO scale, grades 2 to 4)","high dose (0.1 mg/kg) vs placebo, 0.1 mg/kg",more pronounced clinical benefit; also recorded: delayed
same,"delay to onset of ulcerative OM (WHO scale, grades 2 to 4)","high dose (0.1 mg/kg) vs placebo, listed as γ-D-glutamyl-L-tryptophan, 0.1 mg/kg",showed a trend towards delay in onset
same,days of gastrostomy tube use,high dose vs placebo and low dose,fewer days
same,"delay to severe OM (WHO scale, grades 3 and 4), primary endpoint","higher dose (0.1 mg/kg) vs placebo, 0.1 mg/kg",showed a trend towards delay to severe OM; also recorded: delayed severe OM vs. placebo
same,"delay to severe OM (WHO scale, grades 3 and 4), primary endpoint","higher dose (0.1 mg/kg) vs placebo, listed as γ-D-glutamyl-L-tryptophan, 0.1 mg/kg",showed a trend towards delay in onset
same,gastrostomy tube placement and use,0.1 mg/kg,fewer G-tubes placed
same,unplanned office and emergency room visits,0.1 mg/kg,fewer
same,gastrostomy tube placement and use,[10],less reliance on gastrostomy tube placement and use
same,unplanned office and emergency room visits,[10],fewer unplanned office and emergency room visits
same,"delay to onset of ulcerative OM (WHO scale, grades 2 to 4)",low dose (0.02 mg/kg) vs placebo,appeared similar or slightly better than placebo
same,"delay to severe OM (WHO scale, grades 3 and 4), primary endpoint","low dose (0.02 mg/kg) vs placebo, 0.02 mg/kg",appeared to do worse than placebo and not
same,placement of a gastrostomy feeding tube,patients receiving SCV-07 vs placebo,less likely to require placement of a gastrostomy feeding tube
same,"severe OM, percent of patients","at 50 Gy, placebo 42%",29%
same,"severe OM, percent of patients","at ≦40Gy, placebo 32%",18%
